In ChEMBL document CHEMBL1909046, “DrugMatrix in vitro pharmacology data”:
Where a SMILES comes first, the peptide text is derived from it. Bridges are numbered along the chain shown (N, C = ends). [ ]: non-standard residue; d: D form. The star is where a group is joined. Ileψ(thiazoline)Cys = CC[C@H](C)[C@H](N)C1=N[C@H](C(=O)*)CS1; dOrn = NCCC[C@@H](N)C(=O)O

What was measured:
[1] = target: Beta-2 adrenergic receptor (Homo sapiens, UniProt P07550); assay: DRUGMATRIX: Adrenergic beta2 radioligand binding (ligand: [3H] CGP-12177); format: cell membranes, Membrane; conditions: cho; Not Active = under 50% inhibition at 10 µM
Sequence of Beta-2 adrenergic receptor (P07550 whole entry): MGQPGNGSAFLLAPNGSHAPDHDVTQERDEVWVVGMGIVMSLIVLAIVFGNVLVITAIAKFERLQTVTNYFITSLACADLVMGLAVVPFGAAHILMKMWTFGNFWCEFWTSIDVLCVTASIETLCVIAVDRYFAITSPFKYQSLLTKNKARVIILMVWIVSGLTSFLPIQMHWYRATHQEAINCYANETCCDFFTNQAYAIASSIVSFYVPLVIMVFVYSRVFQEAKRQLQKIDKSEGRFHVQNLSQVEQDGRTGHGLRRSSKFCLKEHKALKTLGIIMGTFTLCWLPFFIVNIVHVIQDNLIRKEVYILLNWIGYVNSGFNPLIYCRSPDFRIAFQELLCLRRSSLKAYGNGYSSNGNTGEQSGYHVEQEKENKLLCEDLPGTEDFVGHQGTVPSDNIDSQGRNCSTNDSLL

[2] = target: Insulin receptor (Rattus norvegicus, UniProt P15127); format: cell membranes, Wistar, Liver, Membrane; also: in other assays of this panel Not Active means under 50% inhibition at 10 µM
Sequence of Insulin receptor (P15127 27-759 limits assumed): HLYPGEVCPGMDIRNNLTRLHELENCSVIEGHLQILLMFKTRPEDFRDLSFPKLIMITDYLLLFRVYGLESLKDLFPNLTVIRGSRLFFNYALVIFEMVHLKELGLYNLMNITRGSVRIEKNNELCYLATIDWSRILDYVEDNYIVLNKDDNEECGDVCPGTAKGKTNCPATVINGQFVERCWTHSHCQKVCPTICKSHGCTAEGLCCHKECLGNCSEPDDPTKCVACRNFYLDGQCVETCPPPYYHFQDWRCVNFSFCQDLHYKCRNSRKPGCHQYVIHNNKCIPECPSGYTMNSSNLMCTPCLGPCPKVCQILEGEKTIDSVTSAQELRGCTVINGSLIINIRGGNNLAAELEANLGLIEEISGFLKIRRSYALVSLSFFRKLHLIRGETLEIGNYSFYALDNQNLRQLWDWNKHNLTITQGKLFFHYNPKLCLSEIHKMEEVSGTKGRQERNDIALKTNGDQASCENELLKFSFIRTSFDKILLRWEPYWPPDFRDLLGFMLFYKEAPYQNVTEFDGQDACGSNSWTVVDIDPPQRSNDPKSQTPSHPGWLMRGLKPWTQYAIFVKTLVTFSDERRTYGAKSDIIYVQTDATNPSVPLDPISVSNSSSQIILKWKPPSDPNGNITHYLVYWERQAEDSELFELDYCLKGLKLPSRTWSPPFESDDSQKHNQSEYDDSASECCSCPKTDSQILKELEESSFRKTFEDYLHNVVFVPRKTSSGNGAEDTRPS
Sequence of Insulin receptor (P15127 764-1383 limits assumed): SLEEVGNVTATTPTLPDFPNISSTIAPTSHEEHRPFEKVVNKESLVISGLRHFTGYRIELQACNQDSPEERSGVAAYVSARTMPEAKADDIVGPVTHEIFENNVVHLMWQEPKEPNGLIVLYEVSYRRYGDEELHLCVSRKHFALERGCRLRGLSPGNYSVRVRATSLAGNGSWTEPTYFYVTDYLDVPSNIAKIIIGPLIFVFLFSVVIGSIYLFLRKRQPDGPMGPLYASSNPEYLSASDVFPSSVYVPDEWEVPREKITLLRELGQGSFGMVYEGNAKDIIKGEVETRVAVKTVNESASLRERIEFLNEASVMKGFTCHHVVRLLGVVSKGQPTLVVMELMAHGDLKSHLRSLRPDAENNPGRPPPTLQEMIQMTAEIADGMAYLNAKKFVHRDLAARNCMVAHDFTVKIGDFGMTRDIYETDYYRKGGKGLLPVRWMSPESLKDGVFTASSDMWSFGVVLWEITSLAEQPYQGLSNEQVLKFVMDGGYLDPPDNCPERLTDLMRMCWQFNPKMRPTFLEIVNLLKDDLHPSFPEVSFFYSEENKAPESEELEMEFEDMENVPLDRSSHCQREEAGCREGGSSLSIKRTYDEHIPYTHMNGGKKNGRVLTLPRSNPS

[3] = target: Melanocortin receptor 3 (Homo sapiens, UniProt P41968); format: cell membranes, Membrane; conditions: hek293; also: in other assays of this panel Not Active means under 50% inhibition at 10 µM
Sequence of Melanocortin receptor 3 (P41968 whole entry): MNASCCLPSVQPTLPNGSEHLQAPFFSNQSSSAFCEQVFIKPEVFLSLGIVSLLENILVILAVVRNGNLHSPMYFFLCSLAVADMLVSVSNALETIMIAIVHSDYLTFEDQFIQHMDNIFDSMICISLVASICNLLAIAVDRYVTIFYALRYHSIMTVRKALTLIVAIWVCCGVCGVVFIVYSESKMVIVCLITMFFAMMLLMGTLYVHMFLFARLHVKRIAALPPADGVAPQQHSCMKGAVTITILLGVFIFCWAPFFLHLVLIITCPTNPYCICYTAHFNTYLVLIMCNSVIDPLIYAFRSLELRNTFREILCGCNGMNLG

[4] = target: T1, Angiotensin-converting enzyme (Oryctolagus cuniculus, UniProt P12822); assay: biochemical; format: tissue-based, Lung;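 also: enzymatic inhibition of angiotensin-converting enzyme measured with FAPGG as the substrate; in other assays of this panel Not Active means under 50% inhibition at 10 µM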
T1 sequence (P12822 whole entry): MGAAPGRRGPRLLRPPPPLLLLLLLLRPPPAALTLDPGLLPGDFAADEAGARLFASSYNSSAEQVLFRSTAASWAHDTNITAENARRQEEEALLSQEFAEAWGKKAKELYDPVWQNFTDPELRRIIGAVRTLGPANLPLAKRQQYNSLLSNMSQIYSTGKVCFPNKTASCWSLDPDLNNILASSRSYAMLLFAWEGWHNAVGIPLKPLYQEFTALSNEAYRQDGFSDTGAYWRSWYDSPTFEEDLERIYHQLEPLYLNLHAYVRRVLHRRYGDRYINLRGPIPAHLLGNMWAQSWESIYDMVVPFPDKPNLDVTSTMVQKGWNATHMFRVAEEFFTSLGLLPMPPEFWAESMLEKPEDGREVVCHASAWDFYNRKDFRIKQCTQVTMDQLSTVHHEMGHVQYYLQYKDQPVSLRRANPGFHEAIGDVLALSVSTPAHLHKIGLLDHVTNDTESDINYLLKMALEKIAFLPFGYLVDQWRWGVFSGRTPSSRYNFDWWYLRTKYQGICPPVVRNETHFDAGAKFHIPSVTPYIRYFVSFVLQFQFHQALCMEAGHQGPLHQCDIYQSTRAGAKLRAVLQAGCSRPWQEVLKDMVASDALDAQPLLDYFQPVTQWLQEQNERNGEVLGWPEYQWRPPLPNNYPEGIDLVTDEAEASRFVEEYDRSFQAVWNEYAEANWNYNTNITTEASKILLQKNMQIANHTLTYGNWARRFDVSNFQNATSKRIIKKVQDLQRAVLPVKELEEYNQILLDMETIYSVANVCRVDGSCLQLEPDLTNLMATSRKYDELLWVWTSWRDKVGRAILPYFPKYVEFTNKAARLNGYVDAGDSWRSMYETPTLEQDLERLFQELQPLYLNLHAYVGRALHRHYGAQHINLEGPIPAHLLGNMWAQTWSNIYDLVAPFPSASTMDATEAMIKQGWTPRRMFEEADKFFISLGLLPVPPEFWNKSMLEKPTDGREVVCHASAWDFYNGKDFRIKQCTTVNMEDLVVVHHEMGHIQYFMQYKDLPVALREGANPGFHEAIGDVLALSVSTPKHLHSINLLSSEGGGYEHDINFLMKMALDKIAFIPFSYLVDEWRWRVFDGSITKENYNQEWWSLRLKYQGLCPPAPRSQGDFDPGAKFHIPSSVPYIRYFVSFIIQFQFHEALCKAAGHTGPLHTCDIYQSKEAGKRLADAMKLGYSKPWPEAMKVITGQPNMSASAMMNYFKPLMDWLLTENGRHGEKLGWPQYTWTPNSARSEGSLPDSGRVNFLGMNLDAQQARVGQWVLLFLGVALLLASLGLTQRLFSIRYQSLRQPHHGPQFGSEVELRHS

[5] = target: T2, Interstitial collagenase (Homo sapiens, UniProt P03956); format: tissue-based, Rheumatoid synovial fibroblasts;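 also: MMP-1 enzyme inhibition assay using a peptide substrate; in other assays of this panel Not Active means under 50% inhibition at 10 µM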
T2 sequence (P03956 whole entry): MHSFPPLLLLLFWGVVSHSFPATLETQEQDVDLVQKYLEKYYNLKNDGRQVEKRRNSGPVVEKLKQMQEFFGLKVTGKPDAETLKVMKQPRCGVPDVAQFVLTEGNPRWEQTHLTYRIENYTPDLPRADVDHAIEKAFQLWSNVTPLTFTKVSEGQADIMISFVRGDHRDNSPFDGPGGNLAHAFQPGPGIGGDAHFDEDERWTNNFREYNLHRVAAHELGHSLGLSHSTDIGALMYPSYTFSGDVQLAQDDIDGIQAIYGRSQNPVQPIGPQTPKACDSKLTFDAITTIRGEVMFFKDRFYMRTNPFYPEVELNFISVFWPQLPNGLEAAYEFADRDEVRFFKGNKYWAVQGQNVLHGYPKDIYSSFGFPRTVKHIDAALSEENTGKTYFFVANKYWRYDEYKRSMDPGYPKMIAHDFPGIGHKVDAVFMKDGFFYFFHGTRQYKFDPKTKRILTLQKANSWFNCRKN

[6] = target: Mitogen-activated protein kinase 3 (Homo sapiens, UniProt P27361); assay: DRUGMATRIX: Protein Serine/Threonine Kinase, ERK1 enzyme inhibition (substrate: Myelin Basic Protein); set-up: species or system Escherichia coli; conditions: Not Active = under 50% inhibition at 10 µM
Sequence of Mitogen-activated protein kinase 3 (P27361 whole entry): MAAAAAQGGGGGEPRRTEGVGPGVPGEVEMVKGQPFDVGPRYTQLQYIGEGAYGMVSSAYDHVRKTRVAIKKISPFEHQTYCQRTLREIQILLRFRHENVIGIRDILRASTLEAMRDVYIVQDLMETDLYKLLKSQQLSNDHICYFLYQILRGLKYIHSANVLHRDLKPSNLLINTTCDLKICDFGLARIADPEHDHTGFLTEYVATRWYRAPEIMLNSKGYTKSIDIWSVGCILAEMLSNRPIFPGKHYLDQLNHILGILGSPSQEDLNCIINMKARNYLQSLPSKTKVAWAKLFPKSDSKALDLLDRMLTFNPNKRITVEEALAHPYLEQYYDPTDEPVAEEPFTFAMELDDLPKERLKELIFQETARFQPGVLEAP

[7] = target: Epidermal growth factor receptor (Homo sapiens, UniProt P00533); assay: DRUGMATRIX: Protein Tyrosine Kinase, EGF Receptor enzyme inhibition (substrate: Poly(Glu:Tyr)); format: cell-based, Insect cells; conditions: insect cells; Not Active = under 50% inhibition at 10 µM
Sequence of Epidermal growth factor receptor (P00533 whole entry): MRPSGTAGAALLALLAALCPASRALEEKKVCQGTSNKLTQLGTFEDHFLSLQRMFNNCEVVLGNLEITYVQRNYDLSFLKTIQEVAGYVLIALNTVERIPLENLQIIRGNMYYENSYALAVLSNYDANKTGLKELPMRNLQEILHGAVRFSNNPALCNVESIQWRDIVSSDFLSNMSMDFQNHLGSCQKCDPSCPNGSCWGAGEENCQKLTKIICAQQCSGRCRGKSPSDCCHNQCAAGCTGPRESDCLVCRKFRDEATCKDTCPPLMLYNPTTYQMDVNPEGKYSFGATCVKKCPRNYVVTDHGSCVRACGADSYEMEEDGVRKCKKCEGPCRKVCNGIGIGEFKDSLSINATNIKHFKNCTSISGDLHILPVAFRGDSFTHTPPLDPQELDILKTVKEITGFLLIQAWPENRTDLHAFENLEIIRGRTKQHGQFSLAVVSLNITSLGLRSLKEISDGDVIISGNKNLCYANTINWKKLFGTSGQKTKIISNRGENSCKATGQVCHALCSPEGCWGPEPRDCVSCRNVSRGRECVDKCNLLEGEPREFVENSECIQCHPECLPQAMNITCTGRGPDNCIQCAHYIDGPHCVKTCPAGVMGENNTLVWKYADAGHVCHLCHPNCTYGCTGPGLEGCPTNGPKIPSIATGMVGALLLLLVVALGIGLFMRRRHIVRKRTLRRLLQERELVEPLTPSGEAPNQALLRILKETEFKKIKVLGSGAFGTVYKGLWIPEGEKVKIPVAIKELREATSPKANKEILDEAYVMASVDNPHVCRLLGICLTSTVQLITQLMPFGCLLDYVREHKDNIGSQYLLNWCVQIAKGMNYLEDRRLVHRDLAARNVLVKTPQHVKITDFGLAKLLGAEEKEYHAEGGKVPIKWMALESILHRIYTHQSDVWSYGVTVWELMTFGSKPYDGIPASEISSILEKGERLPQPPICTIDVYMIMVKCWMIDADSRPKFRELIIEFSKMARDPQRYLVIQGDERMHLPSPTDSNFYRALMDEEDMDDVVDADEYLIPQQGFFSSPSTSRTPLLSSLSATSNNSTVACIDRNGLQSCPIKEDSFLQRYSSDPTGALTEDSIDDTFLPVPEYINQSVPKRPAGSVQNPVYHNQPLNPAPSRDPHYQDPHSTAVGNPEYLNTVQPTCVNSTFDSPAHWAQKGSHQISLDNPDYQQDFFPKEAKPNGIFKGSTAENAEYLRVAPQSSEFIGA

Measured: IC50

N=C(N)NCCCCNC(=N)N.O=S(=O)(O)O [ARCAINE SULFATE]
Not Active: all assays above

CC(=O)OCC(=O)[C@@]1(OC(C)=O)[C@@H](C)C[C@H]2[C@@H]3C[C@H](F)C4=CC(=O)C=C[C@]4(C)[C@@]3(F)[C@@H](O)C[C@@]21C [DIFLORASONE DIACETATE]
Not Active: all assays above

CC[C@H](C)[C@H](N)C1=N[C@H](C(=O)N[C@@H](CC(C)C)C(=O)N[C@H](CCC(=O)O)C(=O)N[C@H](C(=O)N[C@H]2CCCCNC(=O)[C@H](CC(N)=O)NC(=O)[C@@H](CC(=O)O)NC(=O)[C@H](Cc3cnc[nH]3)NC(=O)[C@@H](Cc3ccccc3)NC(=O)[C@H]([C@@H](C)CC)NC(=O)[C@@H](CCCN)NC2=O)[C@@H](C)CC)CS1 [BACITRACIN] ({Ileψ(thiazoline)Cys}-L[dE]IK[dOrn]I[dF]H[dD]N; lactam 4-C)
not listed: [7]
Not Active: all other assays above

Oc1cccc2cccnc12 [OXYQUINOLINE]
Not Active: all assays above

CCCCCCCCCc1ccc(O)cc1 [4-NONYLPHENOL]
Not Active: all assays above

CC1COc2c(N3CCN(C)CC3)c(F)cc3c(=O)c(C(=O)O)cn1c23 (stereo unspecified) [OFLOXACIN]
Not Active: all assays above

CC1(C)[C@@H](O[C@H]2O[C@H](C(=O)O)[C@@H](O)[C@H](O)[C@H]2O[C@@H]2O[C@H](C(=O)O)[C@@H](O)[C@H](O)[C@H]2O)CC[C@]2(C)[C@H]3C(=O)C=C4[C@@H]5C[C@@](C)(C(=O)O)CC[C@]5(C)CC[C@@]4(C)[C@]3(C)CC[C@@H]12 [GLYCYRRHIZIN]
Not Active: all assays above

CC(/C=C1\SC(=S)N(CC(=O)O)C1=O)=C\c1ccccc1
Not Active: all assays above

CCCc1cc(=O)[nH]c(=S)[nH]1 [PROPYLTHIOURACIL]
Not Active: all assays above

CC(=O)O[C@]1(C(C)=O)CC[C@H]2[C@@H]3C=C(Cl)C4=CC(=O)CC[C@]4(C)[C@H]3CC[C@@]21C [CHLORMADINONE ACETATE]
Not Active: all assays above

C[C@]12CCC(=O)C=C1CC[C@@H]1[C@@H]2C(=O)C[C@@]2(C)[C@H]1CC[C@]2(O)C(=O)CO [CORTISONE]
Not Active: all assays above

CC(=O)[C@@]1(O)CC[C@H]2[C@@H]3C[C@H](C)C4=CC(=O)C=C[C@]4(C)[C@@]3(F)[C@@H](O)C[C@@]21C [FLUOROMETHOLONE]
Not Active: all assays above

CC1(C)S[C@@H]2[C@H](NC(=O)[C@H](N)c3ccc(O)cc3)C(=O)N2[C@H]1C(=O)O [AMOXICILLIN]
Not Active: all assays above

CN1CCC[C@H]1c1cccnc1 [NICOTINE]
Not Active: all assays above

CCc1cccc2c3c([nH]c12)C(CC)(CC(=O)O)OCC3 (stereo unspecified) [ETODOLAC]
Not Active: all assays above

Cc1[nH]cnc1CN1CCc2c(c3ccccc3n2C)C1=O [ALOSETRON]
Not Active: all assays above
